# Experimental data: article PMC11619365, “Histone deacetylase 2 and 3 of Sarcoptes scabiei: characterization of a potential drug target” (Microbiology Spectrum, 2024)
# Experiments:
# Format in all cases: biochemical
# [1] = biological target: T1, rSsHDAC-3 (Sarcoptes scabiei, UniProt A0A834REN1); assay: fluorogenic trypsin-coupled deacetylase assay (excitation […] nm, emission […] nm); settings: HEPES pH 8.0, 1 mM MgCl2, 37 °C, 2 h
# T1 construct: ORF 411 residues (1,236 bp; amplified fragment printed as around 1,000 bp), pET32a(+) N-terminal Trx/His tag kept (about 18 kDa), 63 kDa on SDS-PAGE, E. coli BL21(DE3), soluble, Ni-NTA; no co-repressor partner
# T1 sequence (A0A834REN1 1-411): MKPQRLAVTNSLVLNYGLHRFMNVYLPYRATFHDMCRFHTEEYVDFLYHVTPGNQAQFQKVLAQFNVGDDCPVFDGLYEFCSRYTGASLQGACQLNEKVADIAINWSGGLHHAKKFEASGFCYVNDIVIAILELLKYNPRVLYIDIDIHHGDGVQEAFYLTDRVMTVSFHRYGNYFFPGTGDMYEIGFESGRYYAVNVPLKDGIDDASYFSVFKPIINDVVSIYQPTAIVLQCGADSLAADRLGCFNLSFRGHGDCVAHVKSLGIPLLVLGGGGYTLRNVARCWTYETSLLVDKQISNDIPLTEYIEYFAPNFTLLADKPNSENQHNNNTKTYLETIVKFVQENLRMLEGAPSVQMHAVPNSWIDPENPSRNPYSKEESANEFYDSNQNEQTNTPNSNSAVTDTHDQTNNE
# [2] = biological target: T2, rSsHDAC-2 (Sarcoptes scabiei, UniProt A0A834RGW6); assay: fluorogenic trypsin-coupled deacetylase assay; settings: Boc-Lys(ε-Ac)-AMC substrate buffer 100 µM (25 of 50 µL), HEPES pH 8.0, 1 mM MgCl2, 37 °C, 2 h; inhibitor concentration as printed, but 1 µL of it added to 50 µL, so final concentration unclear
# T2 sequence (A0A834RGW6 1-304): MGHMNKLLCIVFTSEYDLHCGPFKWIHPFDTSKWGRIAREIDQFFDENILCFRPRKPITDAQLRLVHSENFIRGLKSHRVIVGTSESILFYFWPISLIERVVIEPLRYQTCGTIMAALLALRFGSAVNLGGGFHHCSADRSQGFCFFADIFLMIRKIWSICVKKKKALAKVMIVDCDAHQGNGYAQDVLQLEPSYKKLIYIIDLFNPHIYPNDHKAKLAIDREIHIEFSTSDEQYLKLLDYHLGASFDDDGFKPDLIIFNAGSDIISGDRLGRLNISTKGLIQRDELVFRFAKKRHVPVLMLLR
# [3] = biological target: T1, rSsHDAC-3; assay: fluorogenic trypsin-coupled deacetylase assay
smiles,measurement,setting,value
CC(=O)NCCCC[C@H](NC(=O)OC(C)(C)C)C(=O)Nc1ccc2c(C)cc(=O)oc2c1 [Boc-Lys(ε-Ac)-AMC],"fluorogenic trypsin-coupled deacetylase assay (excitation 355 nm, emission 460 n)",[1],whereas the intensity in the rSsHDAC-3 group increased significantly
COc1ccccc1NC(=O)NCc1ccc(C(=O)NO)cc1 [Elevenostat],% inhibition at 10 μM,[2],81.2%
Nc1cc(F)ccc1NC(=O)/C=C/c1cnn(C/C=C/c2ccccc2)c1 [RGFP966],inhibition at 10 µM,[3],68.9%
